Literature values, collected in the CATMoS acute toxicity set (Mansouri et al. 2021).
Where “and” joins values, the source holds several entries; their conditions need not be identical. Identical values can stand only once.

Assay: rat acute oral toxicity
Details: in vivo

Q: With `Nc1ncnc2[nH]ncc12` as the compound, how does the LD50 read?
A: The LD50 was 141 mg/kg.

Q: Which LD50 does the source give for `C[N+]1(C)[C@@H]2CC[C@H]1C[C@@H](OC(=O)C(CO)c1ccccc1)C2` (some centres undefined) here?
A: The LD50 was 1050 mg/kg and 1900 mg/kg.

Q: For `CCN(CC)C(C)C(=O)c1ccc(NS(C)(=O)=O)cc1` (centres undefined), which LD50 is on record?
A: Its LD50 is 2350 mg/kg.

Q: With `CC(=O)OCC(COC(C)=O)OC(C)=O` as the compound, how does the LD50 read?
A: The LD50 was 3000 mg/kg.

Q: With `COCCOCc1ccccc1` as the compound, how does the LD50 read?
A: The LD50 was 2290 mg/kg.

Q: Which LD50 does the source give for `C[C@@H]1CC[C@H]2[C@@H](C)C(=O)O[C@@H]3O[C@@]4(C)CC[C@@H]1[C@]32OO4` here?
A: Its LD50 is 5580 mg/kg.

Q: Which LD50 does the source give for `C=COCCOCCCC` here?
A: Its LD50 is 3100 mg/kg.

Q: Which LD50 does the source give for `COP(=S)(OC)SCn1nc(C)ccc1=O` here?
A: Its LD50 is 8.75 mg/kg.

Q: Which LD50 does the source give for `N[C@@H]1C[C@H]1c1ccc(F)c(F)c1` here?
A: Its LD50 is 50 mg/kg.

Q: With `Nc1ccc(S(=O)(=O)c2ccc(N)cc2)cc1` as the compound, how does the LD50 read?
A: The LD50 was 1000 mg/kg.

Q: Which LD50 does the source give for `O=C1CCCN1c1cccc2cccnc12` here?
A: Its LD50 is 1650 mg/kg.

Q: For `CCCN(CCC)S(=O)(=O)c1ccc(C(=O)O)cc1`, which LD50 is on record?
A: Its LD50 is 1600 mg/kg.

Q: Which LD50 does the source give for `CCC(N)Cc1c[nH]c2ccccc12` (centres undefined) here?
A: The LD50 was 49 mg/kg.

Q: Which LD50 does the source give for `O=C1c2ccccc2C(=O)N1CC1CO1` (centres undefined) here?
A: Its LD50 is 4700 mg/kg.

Q: Which LD50 does the source give for `c1ccc2c(c1)Sc1ccccc1N2CC1CN2CCC1CC2` (centres undefined) here?
A: Its LD50 is 245 mg/kg.

Q: Which LD50 does the source give for `CCCCCCOCCOC(=O)CCC(=O)OCCOCCCCCC` here?
A: Its LD50 is 4280 mg/kg.

Q: For `CC(=O)OCCO`, which LD50 is on record?
A: The LD50 was 8250 mg/kg.

Q: For `CCCn1c2ccccc2c2cc(N)ccc21`, which LD50 is on record?
A: Its LD50 is 423 mg/kg.

Q: With `Nc1ccc(OCCO)c(N)c1` as the compound, how does the LD50 read?
A: The LD50 was 1000 mg/kg.

Q: With `COCCOC(C)OCCOC` as the compound, how does the LD50 read?
A: Its LD50 is 3260 mg/kg.

Q: For `O=[N+]([O-])c1cc[n+]([O-])cc1`, which LD50 is on record?
A: The LD50 was 107 mg/kg.

Q: With `ClC(Cl)(Cl)c1cccc(C(Cl)(Cl)Cl)c1` as the compound, how does the LD50 read?
A: The LD50 was 2920 mg/kg.

Q: Which LD50 does the source give for `CC(=O)OC(C(Cl)(Cl)Cl)P(=O)(Oc1ccccc1)Oc1ccccc1` (centres undefined) here?
A: Its LD50 is 3280 mg/kg.

Q: With `Oc1ccc(NCc2ccccc2)cc1` as the compound, how does the LD50 read?
A: Its LD50 is 400 mg/kg.

Q: Which LD50 does the source give for `CCCCCc1cc(O)c2c(c1)OC(C)(C)[C@@H]1CC=C(C)C[C@@H]21` here?
A: The LD50 was 860 mg/kg.

Q: With `C[N+](C)(C)CCBr` as the compound, how does the LD50 read?
A: The LD50 was 190 mg/kg.

Q: For `COc1cc(C)c2[nH]c(C)c(CCN3CC4CCC(CC4)C3)c2c1`, which LD50 is on record?
A: The LD50 was 787 mg/kg.

Q: For `CCN(CC)S(=O)(=O)CCNC(=O)N(CCCl)N=O`, which LD50 is on record?
A: Its LD50 is 60 mg/kg.

Q: For `FC(F)(F)C(F)(F)C(F)(F)C(F)(F)C(F)(F)C(F)(F)CCI`, which LD50 is on record?
A: The LD50 was 3870 mg/kg.

Q: With `O=C=NCc1ccc(CN=C=O)cc1` as the compound, how does the LD50 read?
A: The LD50 was 4500 mg/kg.

Q: With `O=S(=O)(O)c1ccc(N=Nc2ccc(N=Nc3c(O)ccc4ccccc34)cc2)cc1` as the compound, how does the LD50 read?
A: The LD50 was 7740 mg/kg.

Q: Which LD50 does the source give for `CCCCCCCCOC(=O)CC(C(=O)OCCCCCCCC)S(=O)(=O)O` (centres undefined) here?
A: The LD50 was 1900 mg/kg.

Q: With `CC(=O)OCCN(CCOC(C)=O)c1ccccc1` as the compound, how does the LD50 read?
A: Its LD50 is 2150 mg/kg.

Q: For `CC1=NN(C(=N)N=C(N)N)C(C)(C)C1`, which LD50 is on record?
A: Its LD50 is 4090 mg/kg.

Q: With `N#Cc1ccc2c(c1)N(CCCN1CCC(O)CC1)c1ccccc1S2` as the compound, how does the LD50 read?
A: The LD50 was 395 mg/kg.

Q: Which LD50 does the source give for `CC(COc1ccc(C(C)(C)C)cc1)OS(=O)OCCCl` (centres undefined) here?
A: The LD50 was 3900 mg/kg.

Q: For `C=CCC1(CCSCCCC)C(=O)N=C(S)NC1=O` (centres undefined), which LD50 is on record?
A: Its LD50 is 1450 mg/kg.

Q: For `O=C1c2c(O)ccc(O)c2C(=O)c2c(NCCNCCO)ccc(NCCNCCO)c21`, which LD50 is on record?
A: The LD50 was 682 mg/kg.

Q: Which LD50 does the source give for `CNC(=O)ON=C1CSC(C)(C)S1` here?
A: The LD50 was 2 mg/kg.

Q: With `Cn1c(=N)oc2ccc(Cl)cc21` as the compound, how does the LD50 read?
A: The LD50 was 1000 mg/kg.

Q: Which LD50 does the source give for `CCCCCCCCCCC(C)c1ccc(S(=O)(=O)O)cc1` (centres undefined) here?
A: Its LD50 is 437 mg/kg.

Q: For `COc1ccc(C)cc1N`, which LD50 is on record?
A: The LD50 was 1450 mg/kg.

Q: Which LD50 does the source give for `C=CC(O)CCCCC` (centres undefined) here?
A: Its LD50 is 340 mg/kg.

Q: For `CC(C)(C)N=NC(C)(C)O`, which LD50 is on record?
A: Its LD50 is 329 mg/kg.

Q: With `COc1c(O)c(Cl)c(Cl)c(Cl)c1Cl` as the compound, how does the LD50 read?
A: Its LD50 is 1690 mg/kg.

Q: With `O=C(c1ccccc1)c1ccc(O)cc1O` as the compound, how does the LD50 read?
A: Its LD50 is 8600 mg/kg.

Q: For `CN(Sc1ccc([N+](=O)[O-])cc1)C(=O)Oc1cccc2c1OC(C)(C)C2`, which LD50 is on record?
A: The LD50 was 25 mg/kg.

Q: Which LD50 does the source give for `C1=CCC=C1` here?
A: The LD50 was 113 mg/kg.

Q: With `CC(C)=CC(N)=O` as the compound, how does the LD50 read?
A: The LD50 was 3560 mg/kg.

Q: Which LD50 does the source give for `CC1(C(=O)O)CC=CCC1` (centres undefined) here?
A: Its LD50 is 2140 mg/kg.

Q: With `CCn1cc(C(O)CN(C)C)c2ccccc21` (centres undefined) as the compound, how does the LD50 read?
A: The LD50 was 80 mg/kg.

Q: For `N=C(N)NCCCCCCCCNCCCCCCCCNC(=N)N`, which LD50 is on record?
A: The LD50 was 300 mg/kg.

Q: Which LD50 does the source give for `COc1c(O)cc(Cl)c(Cl)c1Cl` here?
A: The LD50 was 2980 mg/kg.

Q: For `CC1OCC(CN(C)C)O1` (centres undefined), which LD50 is on record?
A: The LD50 was 575 mg/kg.
